Measurements published in US8258134B2, “Pyridazinone glucokinase activators” (Hoffmann-La Roche Inc., priority 2008, dated 2012).

Each molecule was assayed against T1, Recombinant human liver GK1 (GST-GK) (Homo sapiens, UniProt P35557) (assay: Glucokinase in vitro assay (G6PDH-coupled NADH generation, OD340)). Conditions: 30 uM test compound, 5 mM D-glucose.
T1 construct: made in house; host or cells: E. coli
T1 sequence (P35557 1-466 isoform P35557-2): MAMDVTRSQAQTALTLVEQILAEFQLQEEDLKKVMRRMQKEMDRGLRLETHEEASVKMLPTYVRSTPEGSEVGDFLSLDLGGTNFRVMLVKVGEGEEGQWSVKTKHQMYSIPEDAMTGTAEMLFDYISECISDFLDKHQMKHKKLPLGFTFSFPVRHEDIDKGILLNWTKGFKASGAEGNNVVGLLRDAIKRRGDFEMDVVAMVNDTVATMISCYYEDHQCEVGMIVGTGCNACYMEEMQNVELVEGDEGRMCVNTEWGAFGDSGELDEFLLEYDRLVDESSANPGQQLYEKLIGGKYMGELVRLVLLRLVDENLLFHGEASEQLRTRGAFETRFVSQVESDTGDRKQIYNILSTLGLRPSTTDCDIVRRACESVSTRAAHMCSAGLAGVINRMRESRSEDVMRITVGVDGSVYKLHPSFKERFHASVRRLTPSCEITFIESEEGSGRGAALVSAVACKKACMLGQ
Assay type: biochemical
How it was run: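 Activation readout is SC1.5, the activator concentration raising GK rate (OD340/min) 50% above 10% DMSO controls. The coupled reaction used GST-GK1 from E. coli, 5 mM glucose, 1 mM ATP, 1.8 mM NAD and 25 mM Hepes pH 7.1 at 30° C. Enzyme was added after a 10 min compound pre-incubation.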

Row | SMILES | fold activation @ 30 uM
1 | Cn1ccc(NC(=O)C(CC2CCCC2)n2ncccc2=O)n1 (centres unmarked) [Example 82, 3-Cyclopentyl-N-(1-methyl-1H-pyrazol-3-yl)-2-(6-oxo-6H-pyridazin-1-yl)-propionamide] | 1.3 fold
2 | CC(C)(O)Cn1ccc(NC(=O)[C@@H](CC2CCCC2)n2ncc(Oc3ccccc3C3CCCC3)cc2=O)n1 [Example 22B, (R)-3-Cyclopentyl-2-[4-(2-cyclopentyl-phenoxy)-6-oxo-6H-pyridazin-1-yl]-N-[1-(2-hydroxy-2-methyl-propyl)-1H-pyrazol-3-yl]-propionamide] | 1.22 fold

Same assay, conditions: 5 mM D-glucose, 30° C., pH 7.1, 10% DMSO

Row | SMILES | SC1.5 average (concentration of activator that produced a 50% increase in the activity of GK)
3 | CC(C)(O)Cn1ccc(NC(=O)C(CC2CCCC2)n2ncc(Oc3ccc(F)cc3F)cc2=O)n1 (centres unmarked) [Example 32, 3-Cyclopentyl-2-[4-(2,4-difluoro-phenoxy)-6-oxo-6H-pyridazin-1-yl]-N-[1-(2-hydroxy-2-methyl-propyl)-1H-pyrazol-3-yl]-propionamide] | 0.745 µM
4 | CC(C)(O)Cn1ccc(NC(=O)C(CC2CCCC2)n2ncccc2=O)n1 (centres unmarked) [Example 78, 3-Cyclopentyl-N-[1-(2-hydroxy-2-methyl-propyl)-1H-pyrazol-3-yl]-2-(6-oxo-6H-pyridazin-1-yl)-propionamide] | 14.436 µM
5 | Cc1ccc(Oc2cnn(C(CC3CCCC3)C(=O)Nc3ccn(C[C@@H](O)CO)n3)c(=O)c2)c2c1CCC2 (stereo partly drawn) [Example 93, 3-Cyclopentyl-N-[1-((R)-2,3-dihydroxy-propyl)-1H-pyrazol-3-yl]-2-[4-(7-methyl-indan-4-yloxy)-6-oxo-6H-pyridazin-1-yl]-propionamide] | 0.114 µM
6 | O=C(O)c1ccc(NC(=O)[C@H](CC2CCCC2)n2ncc(Oc3c(F)cccc3F)cc2=O)nc1 [Example 73A, 6-{(S)-3-Cyclopentyl-2-[4-(2,6-difluoro-phenoxy)-6-oxo-6H-pyridazin-1-yl]-propionylamino}-nicotinic acid] | 0.012 µM
7 | O=C(Nc1ccn(C[C@@H](O)CO)n1)C(CC1CCCC1)n1ncc(Oc2nccc(C(F)(F)F)n2)cc1=O (stereo partly drawn) [Example 115, 3-Cyclopentyl-N-[1-((R)-2,3-dihydroxy-propyl)-1H-pyrazol-3-yl]-2-[6-oxo-4-(4-trifluoromethyl-pyrimidin-2-yloxy)-6H-pyridazin-1-yl]-propionamide] | 0.376 µM
8 | COC(=O)c1ccc(NC(=O)[C@H](CC2CCCC2)n2ncc(Oc3c(F)cccc3F)cc2=O)nc1 [Example 68A, 6-{(S)-3-Cyclopentyl-2-[4-(2,6-difluoro-phenoxy)-6-oxo-6H-pyridazin-1-yl]-propionylamino}-nicotinic acid methyl ester] | 0.008 µM
9 | CC(C)CC(C(=O)Nc1ccn(C[C@@H](O)CO)n1)n1ncc(Oc2cccc3ccccc23)cc1=O (stereo partly drawn) [Example 109, 4-Methyl-2-[4-(naphthalen-1-yloxy)-6-oxo-6H-pyridazin-1-yl]-pentanoic acid [1-((R)-2,3-dihydroxy-propyl)-1H-pyrazol-3-yl]-amide] | 0.293 µM
10 | CC(C)(O)Cn1ccc(NC(=O)C(CC2CCCC2)n2ncc(Oc3cccc(C(F)(F)F)c3)cc2=O)n1 (centres unmarked) [Example 6, 3-Cyclopentyl-N-[1-(2-hydroxy-2-methyl-propyl)-1H-pyrazol-3-yl]-2-[6-oxo-4-(3-trifluoromethyl-phenoxy)-6H-pyridazin-1-yl]-propionamide] | 0.844 µM
11 | COC(=O)c1ccc(NC(=O)C(CC2CCCC2)n2ncc(Oc3c(F)cccc3F)cc2=O)nc1 (centres unmarked) [Example 68, 6-{3-Cyclopentyl-2-[4-(2,6-difluoro-phenoxy)-6-oxo-6H-pyridazin-1-yl]-propionylamino}-nicotinic acid methyl ester] | 0.013 µM
12 | CC(C)C[C@@H](C(=O)Nc1ccn(CC(C)(C)O)n1)n1ncc(Oc2c(F)cccc2F)cc1=O [Example 42A, (S)-2-[4-(2,6-Difluoro-phenoxy)-6-oxo-6H-pyridazin-1-yl]-4-methyl-pentanoic acid [1-(2-hydroxy-2-methyl-propyl)-1H-pyrazol-3-yl]-amide] | 0.17 µM
13 | O=C(Nc1ccn(C[C@@H](O)CO)n1)C(CC1CCOCC1)n1ncc(Oc2c(F)cccc2F)cc1=O (stereo partly drawn) [Example 62, 2-[4-(2,6-difluoro-phenoxy)-6-oxo-6H-pyridazin-1-yl]-N-[1-((R)-2,3-dihydroxy-propyl)-1H-pyrazol-3-yl]-3-(tetrahydro-pyran-4-yl)-propionamide] | 0.373 µM
14 | Cn1ccc(NC(=O)C(CC2CCCC2)n2ncccc2=O)n1 (centres unmarked) [Example 82, 3-Cyclopentyl-N-(1-methyl-1H-pyrazol-3-yl)-2-(6-oxo-6H-pyridazin-1-yl)-propionamide] | > 30 µM
15 | O=C(Nc1ccn(C[C@@H](O)CO)n1)C(CC1CCCC1)n1ncc(Oc2ccccc2OC(F)(F)F)cc1=O (stereo partly drawn) [Example 98, 3-Cyclopentyl-N-[1-((R)-2,3-dihydroxy-propyl)-1H-pyrazol-3-yl]-2-[6-oxo-4-(2-trifluoromethoxy-phenoxy)-6H-pyridazin-1-yl]-propionamide] | 0.244 µM
16 | CC(C)(O)Cn1ccc(NC(=O)[C@@H](CC2CCCC2)n2ncc(Oc3ccccc3C3CCCC3)cc2=O)n1 [Example 22B, (R)-3-Cyclopentyl-2-[4-(2-cyclopentyl-phenoxy)-6-oxo-6H-pyridazin-1-yl]-N-[1-(2-hydroxy-2-methyl-propyl)-1H-pyrazol-3-yl]-propionamide] | > 30 µM
17 | CC(C)(O)Cn1ccc(NC(=O)C(CC2CCCC2)n2ncc(Oc3cccc4cnccc34)cc2=O)n1 (centres unmarked) [Example 37, 3-Cyclopentyl-N-[1-(2-hydroxy-2-methyl-propyl)-1H-pyrazol-3-yl]-2-[4-(isoquinolin-5-yloxy)-6-oxo-6H-pyridazin-1-yl]-propionamide] | 0.566 µM
18 | O=C(Nc1ccn(CCO)n1)C(CC1CCC1)n1ncc(Oc2c(F)cccc2F)cc1=O (centres unmarked) [Example 55, 3-Cyclobutyl-2-[4-(2,6-difluoro-phenoxy)-6-oxo-6H-pyridazin-1-yl]-N-[1-(2-hydroxy-ethyl)-1H-pyrazol-3-yl]-propionamide] | 0.468 µM
19 | Cc1ccccc1Oc1cnn([C@@H](CC2CCCC2)C(=O)Nc2ccn(CC(C)(C)O)n2)c(=O)c1 [Example 24A, (S)-3-Cyclopentyl-N-[1-(2-hydroxy-2-methyl-propyl)-1H-pyrazol-3-yl]-2-(6-oxo-4-o-tolyloxy-6H-pyridazin-1-yl)-propionamide] | 0.1 µM
20 | CC(C)(O)Cn1ccc(NC(=O)[C@H](CC2CCCC2)n2ncc(Oc3cc(F)ccc3F)cc2=O)n1 [Example 33A, (S)-3-Cyclopentyl-2-[4-(2,5-difluoro-phenoxy)-6-oxo-6H-pyridazin-1-yl]-N-[1-(2-hydroxy-2-methyl-propyl)-1H-pyrazol-3-yl]-propionamide] | 0.265 µM
21 | CC(C)(O)Cn1ccc(NC(=O)[C@H](CC2CCCC2)n2ncc(Oc3ccc(F)cc3F)cc2=O)n1 [Example 32A, (S)-3-Cyclopentyl-2-[4-(2,4-difluoro-phenoxy)-6-oxo-6H-pyridazin-1-yl]-N-[1-(2-hydroxy-2-methyl-propyl)-1H-pyrazol-3-yl]-propionamide] | 0.502 µM
22 | COC(=O)c1cc(NC(=O)C(CC2CCCC2)n2ncc(Oc3ccccc3C(F)(F)F)cc2=O)nn1C (centres unmarked) [Example 16, 5-{3-Cyclopentyl-2-[6-oxo-4-(2-trifluoromethyl-phenoxy)-6H-pyridazin-1-yl]-propionylamino}-2-methyl-2H-pyrazole-3-carboxylic acid methyl ester] | 4.548 µM
23 | O=C(Nc1nccs1)C(CC1CCCC1)n1ncc2ccccc2c1=O (centres unmarked) [Example 83, 3-Cyclopentyl-2-(1-oxo-1H-phthalazin-2-yl)-N-thiazol-2-yl-propionamide] | 8.783 µM
24 | CCOc1ccc(F)c(Oc2cnn(C(CC(C)C)C(=O)Nc3ccn(C[C@@H](O)CO)n3)c(=O)c2)c1F (stereo partly drawn) [Example 120, 2-[4-(3-ethoxy-2,6-difluoro-phenoxy)-6-oxo-6H-pyridazin-1-yl]-4-methyl-pentanoic acid [1-((R)-2,3-dihydroxy-propyl)-1H-pyrazol-3-yl]-amide] | 0.18 µM
25 | O=C(Nc1ccn(CCO)n1)C(CC1CCCC1)n1ncc(Oc2c(F)cccc2F)cc1=O (centres unmarked) [Example 60, 3-Cyclopentyl-2-[4-(2,6-difluoro-phenoxy)-6-oxo-6H-pyridazin-1-yl]-N-[1-(2-hydroxy-ethyl)-1H-pyrazol-3-yl]-propionamide] | 0.166 µM
26 | CC(C)C[C@H](C(=O)Nc1ccn(CC(C)(C)O)n1)n1ncc(Oc2c(F)cccc2F)cc1=O [Example 42B, (R)-2-[4-(2,6-Difluoro-phenoxy)-6-oxo-6H-pyridazin-1-yl]-4-methyl-pentanoic acid [1-(2-hydroxy-2-methyl-propyl)-1H-pyrazol-3-yl]-amide] | 5.981 µM
